Values quoted from earlier work, collected in patent US6316468A, “Phenylindole derivatives as 5-HT2A receptor antagonists” (Merck Sharp & Dohme Ltd., priority 1997, dated 2001).

How the values were obtained:
[1] = schizophrenic patients, multicentre, placebo-controlled study
[2] = system: human dopamine D2 receptor
[3] = system: apomorphine-induced stereotyped behaviour; details: animal models, preclinical studies

## COc1cccc(C(O)C2CCN(CCc3ccc(F)cc3)CC2)c1OC (single isomer, unassigned) [MDL-100,907, (+)-α-(2,3-dimethoxyphenyl)-1-[2-(4-fluorophenyl)-ethyl]-4-piperidinemethanol]
[1]
  efficacy for antipsychotic potential: demonstrated efficacy
[2]
  activity at the human dopamine D2 receptor: essentially devoid of activity
[3]
  block of apomorphine-induced stereotyped behaviour: failed to block apomorphine-induced stereotyped behaviour
Human 5-HT2A receptors
  antagonism of human 5-HT2A receptors: potent antagonist
